Measured values: patent US20230321045A1 (priority 2022, published 2023)
“Also recorded” adds a separate entry of the source. Where two headings read alike, the source gives them in different places.

Tests used:
vaccinia virus [1] = type: cell-based
vaccinia virus [2] = type: cell-based; remark: listed apart in the source
H1N1 (PR8) [3] = test system: H1N1 (PR8); design: species or system female Balb/c mice; details: mouse, in vivo
H1N1 (PR8) [4] = test system: H1N1 (PR8); design: species or system female Balb/c mice; details: mouse, in vivo; remark: listed apart in the source
H1N1 (PR8) [5] = test system: H1N1 (PR8); design: species or system female Balb/c mice; details: mouse, in vivo; remark: listed apart in the source
H1N1 (PR8) [6] = test system: H1N1 (PR8); design: species or system female Balb/c mice; details: mouse, in vivo; remark: listed apart in the source

## COc1cc(C(=O)c2cnc(-c3c[nH]c4ccccc34)[nH]2)cc(OC)c1OC.Cl [17ya hydrochloride salt]
Vaccinia virus [1]
  release of extracellular enveloped virus (EEV) from infected cells: dose dependent inhibition of virus released
  virus associated with the infected cells (IMV): not a good correlation between the amount of drug and the amount of virus produced
Vaccinia virus [1]; read-out: IC50, virus released into the media (EEV)
  IC50: 24.3 nM
Vaccinia virus [1]; read-out: IC90, virus released into the media (EEV)
  IC90: 37.8 nM
Vaccinia virus [2]
  vaccinia virus cell-to-cell spread: clear dose-dependent response
Vaccinia virus [2]; read-out: IC50, vaccinia virus cell-to-cell spread
  IC50: 15.7 nM
Vaccinia virus [2]; read-out: IC90, vaccinia virus cell-to-cell spread
  IC90: 27 nM
BSC40 cells
  toxicity to BSC40 cells: showed a dose response for toxicity

## C[C@@H]1C[C@H]2[C@@H]3CCC4=CC(=O)C=C[C@]4(C)[C@@]3(F)[C@@H](O)C[C@]2(C)[C@@]1(O)C(=O)CO [Dexamethasone]
H1N1 (PR8) [3]
  BAL cell counts: Eosinophils: 0.03 million/animal
  BAL cell counts: Lymphocytes: 0.15 million/animal
  BAL cell counts: Mononuclear cells: 0.02 million/animal
  BAL cell counts: Neutrophils: 0.34 million/animal
  BAL cell counts: Totals: 0.54 million/animal
H1N1 (PR8) [4]
  BAL Cytokine level: IFN-γ: 4.80 ± pg/ml
  BAL Cytokine level: IL-6: 351.37 ± pg/ml
  BAL Cytokine level: IP-10: 1102.42 pg/mL
  BAL Cytokine level: KC: 854.41 pg/mL
  BAL Cytokine level: TNF-α: 24.08 pg/mL
  change in CXCL-10 in BAL fluid: −8%
  change in Interferon-γ (INF-γ) in BAL fluid: −81%
  change in Interleukin-6 (IL-6) in BAL fluid: −52%
  change in Keratinocyte-derived chemokine (KC) in BAL fluid: +20%
  change in TNF-α in BAL fluid: −13%

## CCOC(=O)C1=C[C@@H](OC(CC)CC)[C@H](NC(C)=O)[C@@H](N)C1 [Oseltamivir]
H1N1 (PR8) [5]
  body weight gain / body weight loss vs H1N1 vehicle control group: statistically significantly higher (p<0.01) body weight gain from Day 6 to Day 11; also recorded: attenuated the clinical signs and bodyweight loss
  clinical signs associated with H1N1 infection: attenuation of the clinical signs; also recorded: attenuated the clinical signs
H1N1 (PR8) [3]
  BAL cell counts: Eosinophils: 0.01 ± million/animal
  BAL cell counts: Lymphocytes: 0.09 ± million/animal
  BAL cell counts: Mononuclear cells: 0.01 ± million/animal
  BAL cell counts: Neutrophils: 0.15 ± million/animal
  BAL cell counts: Totals: 0.27 ± million/animal
  BAL total and differential cells compared to the H1N1 control group: statistically significantly (p<0.01) lower BAL total cells, neutrophils, eosinophils, lymphocytes, and mononuclear cells
H1N1 (PR8) [4]
  BAL Cytokine level: IFN-γ: 2.78 ± pg/ml
  BAL Cytokine level: IL-6: 31.01 ± pg/ml
  BAL Cytokine level: IP-10: 147.64 ± pg/ml
  BAL Cytokine level: KC: 88.29 ± pg/ml
  BAL cytokine levels compared to the H1N1 control group: statistically significantly (p<0.01) lower TNFα, IFNγ, IL-6, KC, and IP-10; also recorded: statistically significantly lower BAL total cells, neutrophils, eosinophils, lymphocytes, mononuclear cells BAL IFNγ, IL-6, IP-10, KC and TNFα
H1N1 (PR8) [6]
  H1N1 induced higher PenH: completely attenuated H1N1 induced higher PenH
